Series [1] deals with co-culture of keratinocytes and melanocytes. The experiment in a line: Cytotoxicity by incorporation of leucine in a keratinocyte/melanocyte co-culture. Format: cell-based. As to conditions: estimated by incorporation of leucine. As to the method:
(§1) The melanogenesis-modulating effect of the compound of Example 2 was measured according to the method described in patent FR-A-2 734 825, and also in the article by R. Schmidt, P. Krien and M. Régnier, Anal. Biochem., 235(2), 113-18, (1996). This test is performed on a co-culture of keratinocytes and melanocytes.
(§2) The following were determined for the test compound: • the cytotoxicity, by estimating the incorporation of leucine, • the inhibitory activity on melanin synthesis, by estimating the ratio of the incorporation of thiouracil to the incorporation of leucine, relative to 100% of the control (the control corresponds to the test performed without test compound). The IC50 values (the concentration for which a 50% inhibition of melanogenesis is observed) were also determined.
(§3) The test was also performed with arbutin, which is a known depigmenting compound.

The test system is the same in series [2]. The experiment in a line: Inhibition of melanin synthesis (ratio of thiouracil to leucine incorporation) in a keratinocyte/melanocyte co-culture. The conditions noted are these: for IC50: ratio of thiouracil to leucine incorporation relative to 100% of control, read-out: IC50 (concentration for which a 50% inhibition of melanogenesis is observed). It is filed as cell-based. As to the method: as §1, §2, §3

On to `OC[C@H]1O[C@@H](Oc2ccc(O)cc2)[C@H](O)[C@@H](O)[C@@H]1O` [Arbutin, arbutin, reference compound], for which, in series [1], the Cytotoxicity result was “No”. In series [2], the IC50 is at least 100 µM.
With `OC[C@H]1O[C@@H](CC(O)c2ccc(O)cc2)[C@H](O)[C@@H](O)[C@@H]1O` (some centres unmarked) [Example 2], the Cytotoxicity result in series [1] was “No”. For the same molecule, the “Inhibition of melanogenesis (in words)” value in series [2] (compared with arbutin) was “more efficient than arbutin”. The IC50 in series [2] was 100 µM.

The values above are taken from patent US20080193400A1, “C-Glycoside Compounds and Use Thereof for Depigmenting the Skin” (priority 2005, published 2008).
